Columns and labels:
heparinase III = target: T1, heparinase III (Pedobacter heparinus, UniProt Q59289); experiment: Cleavage of defined oligosaccharide substrates by heparinase III; assay type: biochemical, Flavobacterium heparinum
T1 construct: made in house
Excerpt: Secondary specificities of the heparinases have been observed, especially under exhaustive degradation conditions. As a part of ongoing investigations into the enzymology of heparinases, the relative rates of cleavage of I and G containing sites by heparinase I and III with defined substrates under different conditions have been measured. For instance heparinase III cleaves both at I and G containing linkages and not I2S [H. E. Conrad, Heparin Binding Proteins (Academic Press, San Diego, 1998).]. However, under the reaction conditions used in this study, there is a dramatic (8-10 fold) difference in the rates of cleavage, with I-containing linkages being clipped more slowly than G-containing linkages (FIG. 7A). […] Each reaction was followed by capillary electrophoresis. […] Under the “short” conditions of digest it is expected that only G-containing saccharides are cleaved to an appreciable extent. [Conditions for enzymatic digest of HLGAG oligosaccharides were set forth above, briefly, Digests were either designated as “short” or “exhaustive”. Short digests were completed with 50 nM enzyme for 10 minutes. Exhaustive digests were completed using 200 nM enzyme for either four hours or overnight. Partial nitrous acid cleavage was completed using a modification of published procedures. Briefly, to an aqueous solution of saccharide was added a 2× solution of sodium nitrite in HCl such that the concentration of nitrous acid was 2 mM and HCl was 20 mM. The reaction was allowed to proceed at room temperature with quenching of aliquots at various time points via the addition of 1 μL of 200 mM sodium acetate 1 mg/mL BSA pH 6.0. Exhaustive nitrous acid was completed by reacting saccharide with 4 mM nitrous acid in HCl overnight at room temperature.
Quite a few factors have severely limited and complicated prior art studies and interpretation of heparinase substrate specificity experiments. First, not only is a homogenous substrate preparation difficult, but also analyzing the substrates and products have been very challenging. […]

FGF-2 = FGF-2 (Homo sapiens, UniProt P09038); experiment: Saccharide binding to FGF-2 immobilized on the MALDI surface, salt wash, MALDI-MS detection
Experimental: Protein preparation and immobilization. ATIII was incubated overnight with excess porcine mucosal heparin, then biotinylated with EZ-link sulfo-NHS biotin (Pierce). Canon NP Type E transparency film was taped to the MALDI sample plate and used as a protein immobilization surface. FGF-1 and FGF-2 were immobilized by spotting 1 μl of aqueous solution on the film and air-drying. ATIII was immobilized by first drying 4 μg neutravidin on the film surface, then adding biotinylated ATIII to the neutravidin spot. Heparin was removed by washing ten times with 1M NaCl and ten times with water.
Saccharide binding, selection and analysis. Saccharides were derived from a partial digest of porcine mucosal heparin by heparinase I. The hexasaccharide fraction was obtained by size exclusion chromatography on Biogel P-6 and lyophilized to dryness. Saccharides were bound to immobilized proteins by spotting 1 μl of aqueous solution on the protein spot for at least five minutes. Unbound saccharides were removed by washing with water fifteen times. […] All saccharides were detected as noncovalent complexes with (RG)19R using MALDI parameters described herein.
Isolation, Purification, and Selection of FGF binders from SMC heparan sulfate. […] After drying, the sample was washed, 2 pmol/μl (RG)19R in matrix was added, and the sample was analyzed as outlined above.

Heparinase II = experiment: Incubation of hexasaccharide with heparinase II; assay type: biochemical
[1] = Relative rates of cleavage of tetrasaccharides by recombinant heparinase III, followed by capillary electrophoresis; assay type: biochemical
Excerpt: (§1) Secondary specificities of the heparinases have been observed, especially under exhaustive degradation conditions. As a part of ongoing investigations into the enzymology of heparinases, the relative rates of cleavage of I and G containing sites by heparinase I and III with defined substrates under different conditions have been measured. For instance heparinase III cleaves both at I and G containing linkages and not I2S [H. E. Conrad, Heparin Binding Proteins (Academic Press, San Diego, 1998).]. However, under the reaction conditions used in this study, there is a dramatic (8-10 fold) difference in the rates of cleavage, with I-containing linkages being clipped more slowly than G-containing linkages (FIG. 7A). […] Each reaction was followed by capillary electrophoresis. […] Under the “short” conditions of digest it is expected that only G-containing saccharides are cleaved to an appreciable extent. [Conditions for enzymatic digest of HLGAG oligosaccharides were set forth above, briefly, Digests were either designated as “short” or “exhaustive”. Short digests were completed with 50 nM enzyme for 10 minutes. Exhaustive digests were completed using 200 nM enzyme for either four hours or overnight. Partial nitrous acid cleavage was completed using a modification of published procedures. […]

[2] = Cleavage of tetrasaccharides by heparinase I; assay type: biochemical; settings: tetrasaccharide substrates, same study as FIG. 7A
Excerpt: as §1

Chain of FGF-2 (P09038 134-288 limits assumed, species assumed): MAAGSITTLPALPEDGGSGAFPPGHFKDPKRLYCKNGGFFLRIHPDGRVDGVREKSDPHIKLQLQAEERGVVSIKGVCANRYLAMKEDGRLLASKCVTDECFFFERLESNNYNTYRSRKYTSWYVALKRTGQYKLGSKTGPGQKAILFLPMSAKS

For ΔU2SHNS,6SI2SHNS,6S, the “Degradation by a commercial source of heparinase III” value (heparinase III; commercial enzyme, sulfatase contamination suggested) was “able to degrade” and the “Cleavage by recombinant heparinase III” value (heparinase III; recombinant enzyme without contamination by other heparin degrading enzymes) was “does not cleave”.

For “ΔU2SHNS,6SI2SHNS,6SI2SHNS,6S [nonasulfated hexasaccharide]”, the “FGF-2 binder selected from SMC heparan sulfate” value (FGF-2; bovine aortic SMC HLGAG fragments digested with heparinase II, spotted on FGF-2) was “high affinity binder” and the “Structures remaining on immobilized FGF upon a salt wash” value (FGF-2; hexasaccharide fraction from incomplete heparinase I digestion of porcine intestinal mucosa heparin) was “remained”.

For ΔUHNH,6SGHNSIHNAc, the “Cleavage by heparinase III” value (heparinase III; "short" digest conditions) was “cleavage occurs only at the G” and the “Cleavage by heparinase II” value (Heparinase II) was “only cleavage at the G and not the I was observed”.

B1: heparinase III: HLGAG degrading enzyme; cleaves at a glycosidic linkage before an unsulfated glucuronic acid (protein, UniProt Q59289 25-659, looked up)
Heparin-sulfate lyase: QSSSITRKDFDHINLEYSGLEKVNKAVAAGNYDDAAKALLAYYREKSKAREPDFSNAEKPADIRQPIDKVTREMADKALVHQFQPHKGYGYFDYGKDINWQMWPVKDNEVRWQLHRVKWWQAMALVYHATGDEKYAREWVYQYSDWARKNPLGLSQDNDKFVWRPLEVSDRVQSLPPTFSLFVNSPAFTPAFLMEFLNSYHQQADYLSTHYAEQGNHRLFEAQRNLFAGVSFPEFKDSPRWRQTGISVLNTEIKKQVYADGMQFELSPIYHVAAIDIFLKAYGSAKRVNLEKEFPQSYVQTVENMIMALISISLPDYNTPMFGDSWITDKNFRMAQFASWARVFPANQAIKYFATDGKQGKAPNFLSKALSNAGFYTFRSGWDKNATVMVLKASPPGEFHAQPDNGTFELFIKGRNFTPDAGVFVYSGDEAIMKLRNWYRQTRIHSTLTLDNQNMVITKARQNKWETGNNLDVLTYTNPSYPNLDHQRSVLFINKKYFLVIDRAIGEATGNLGVHWQLKEDSNPVFDKTKNRVYTTYRDGNNLMIQSLNADRTSLNEEEGKVSYVYNKELKRPAFVFEKPKKNAGTQNFVSIVYPYDGQKAPEISIRENKGNDFEKGKLNLTLTINGKQQLVLVP
In the case of B1, the “Difference in the rates of cleavage, I-containing linkages clipped more slowly than G-containing linkages” value ([1]; reaction conditions of this study) is reported as 8-10 fold and the “Cleavage of G-containing linkages relative to I-containing linkages” value ([1]; recombinant heparinase III, tetrasaccharide substrates) is reported as “roughly 10 times”.

B2: heparinase I: HLGAG degrading enzyme; clips at a glycosidic linkage before a 2-O sulfated iduronic acid (protein, UniProt Q05819 22-384, looked up)
Heparin lyase I: QQKKSGNIPYRVNVQADSAKQKAIIDNKWVAVGINKPYALQYDDKLRFNGKPSYRFELKAEDNSLEGYAAGETKGRTELSYSYATTNDFKKFPPSVYQNAQKLKTVYHYGKGICEQGSSRSYTFSVYIPSSFPDNATTIFAQWHGAPSRTLVATPEGEIKTLSIEEFLALYDRMIFKKNIAHDKVEKKDKDGKITYVAGKPNGWKVEQGGYPTLAFGFSKGYFYIKANSDRQWLTDKADRNNANPENSEVMKPYSSEYKTSTIAYKMPFAQFPKDCWITFDVAIDWTKYGKEANTILKPGKLDVMMTYTKNKKPQKAHIVNQQEILIGRNDDDGYYFKFGIYRVGNSTVPVTYNLSGYSETAR
With B2 the “Linkage specificity of cleavage by heparinase I” value [2] was “cleavage only occurs at I2S-containing linkages”.
